Test system: colonocytes
Experiment: In situ apoptosis (TUNEL assay), apoptotic index
Type: in vivo, rat
Conditions: pectin intake compared to cellulose intake, ACF/promotion stage, radiation study
Protocol: Apoptosis was measured by the binding of TdT-mediated UTP-biotin nick end labeling (TUNEL assay) to fragmented pieces of DNA using sections (4 μm) of PFA-fixed, paraffin-embedded tissue. Apoptotic cells with condensed chromatin, apoptotic bodies and intense brown staining were counted in 50 crypt columns for each animal. The apoptotic index is 100 times the mean number of apoptotic cells per crypt column divided by the total number of cells per crypt column. Chang et al., “Predictive value of proliferation, differentiation and apoptosis as intermediate markers for colon tumorigenesis” Carcinogenesis 18:721-730 (1997).
Data were analyzed using ANOVA to determine the effect of diet (FO/P vs. CO/C) on apoptosis, high multiplicity ACF, and proliferative zone (SAS Institute Inc.). Colon tumor incidence was analyzed by Chi square analysis and reported as percentage of rats bearing tumors (SAS Institute Inc.).

With pectin the apoptosis was “induced apoptosis” and the apoptosis (listed as Pectin) was “induced the levels of apoptosis”.
